Test results from ChEMBL document CHEMBL2346549, “Vavilosides A1/A2-B1/B2, new furostane glycosides from the bulbs of Allium vavilovii with cytotoxic activity” (Bioorg Med Chem, 2013).

Experiments:
[1] = test system: J774; assay: Cytotoxicity against mouse J774 cells assessed as growth inhibition after 72 hrs by MTT assay; format: functional, cell-based; conditions: J774, 72 h
[2] = test system: WEHI-164; assay: Cytotoxicity against mouse WEHI164 cells assessed as growth inhibition after 72 hrs by MTT assay; format: functional, cell-based; conditions: WEHI-164, 72 h

Row | Structure (SMILES) | IC50 [1] [µg/mL] | IC50 [2] [µg/mL]
1 | C[C@H](CCC1(O)O[C@H]2C[C@H]3[C@@H]4CC=C5C[C@@H](O)C[C@@H](O[C@@H]6O[C@H](CO)[C@H](O)[C@H](O)[C@H]6O[C@@H]6O[C@@H](C)[C@H](O)[C@@H](O)[C@H]6O)[C@]5(C)[C@H]4CC[C@]3(C)[C@H]2[C@@H]1C)CO[C@@H]1O[C@@H](C)[C@H](O)[C@@H](O)[C@H]1O (mixture of isomers) | 5.1 | 4.7
2 | C[C@H](CCC1(O)O[C@H]2C[C@H]3[C@@H]4CC=C5C[C@@H](O)C[C@@H](O[C@@H]6OC[C@@H](O)[C@H](O)[C@H]6O[C@@H]6O[C@@H](C)[C@H](O)[C@@H](O)[C@H]6O)[C@]5(C)[C@H]4CC[C@]3(C)[C@H]2[C@@H]1C)CO[C@@H]1O[C@@H](C)[C@H](O)[C@@H](O)[C@H]1O (mixture of isomers) | 3.5 | 3.1
3 | C[C@H](CCC1(O)O[C@H]2C[C@H]3[C@@H]4CC=C5C[C@@H](O)C[C@@H](O[C@@H]6O[C@H](CO)[C@H](O)[C@H](O)[C@H]6O)[C@]5(C)[C@H]4CC[C@]3(C)[C@H]2[C@@H]1C)CO[C@@H]1O[C@H](CO)[C@@H](O)[C@H](O)[C@H]1O[C@@H]1O[C@@H](C)[C@H](O)[C@@H](O)[C@H]1O (mixture of isomers) [ASCALONICOSIDE A1/A2] | 4 | 3.7
